Reference: ChEMBL document CHEMBL1671707, “Mycobacterium tuberculosis dihydrofolate reductase is not a target relevant to the antitubercular activity of isoniazid” (Antimicrob Agents Chemother, 2010)
In brackets after ≈: the same amount, converted by molar mass. Activity calls are given as the source filed them. The calls are words filed in the database; no cut-off is given here.

Columns and labels:
[1] = system: Mycolicibacterium smegmatis; test: Antimicrobial activity against Mycobacterium smegmatis MC2 5069 assessed as growth inhibition at 50 ug/ml; assay type: functional, organism-based
[2] = system: Mycolicibacterium smegmatis; test: Antimicrobial activity against Mycobacterium smegmatis MC2 5071 overexpressing InhA gene assessed as growth inhibition at 150 ug/ml; assay type: functional, organism-based
[3] = system: Mycolicibacterium smegmatis; test: Ratio of MIC for Mycobacterium smegmatis overexpressing dfrA gene to MIC for wild-type Mycobacterium smegmatis; assay type: functional
Dihydrofolate reductase = biological target: T1, Dihydrofolate reductase (Mycobacterium tuberculosis, UniProt P9WNX1); test: Inhibition of Mycobacterium tuberculosis dihydrofolate reductase
T1 sequence (P9WNX1 whole entry): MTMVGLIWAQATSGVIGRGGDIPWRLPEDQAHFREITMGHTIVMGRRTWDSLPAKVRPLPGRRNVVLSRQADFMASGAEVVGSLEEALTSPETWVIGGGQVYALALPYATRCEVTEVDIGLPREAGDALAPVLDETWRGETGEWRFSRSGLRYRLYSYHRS

[4] = system: Mycolicibacterium smegmatis; test: Antimicrobial activity against Mycobacterium smegmatis MC2 4517 by broth microdilution method; assay type: functional
[5] = system: Mycolicibacterium smegmatis; test: Antimicrobial activity against Mycobacterium smegmatis MC2 5071 overexpressing InhA gene assessed as growth inhibition at 50 ug/ml; assay type: functional, organism-based
[6] = system: Mycolicibacterium smegmatis; test: Antimicrobial activity against Mycobacterium smegmatis MC2 5071 overexpressing InhA gene assessed as growth inhibition at 120 ug/ml; assay type: functional, organism-based
Escherichia coli = test: Antimicrobial activity against Escherichia coli expressing katG and dfrA gene; assay type: functional, organism-based
[7] = system: Mycobacterium tuberculosis; test: Antimicrobial activity against wild-type Mycobacterium tuberculosis H37Rv by MTT assay; assay type: functional
[8] = system: Mycolicibacterium smegmatis; test: Antimicrobial activity against Mycobacterium smegmatis MC2 5071 overexpressing InhA gene assessed as growth inhibition at 10 ug/ml; assay type: functional, organism-based
[9] = system: Mycolicibacterium smegmatis; test: Antimicrobial activity against Mycobacterium smegmatis MC2 5072 overexpressing dhfr gene assessed as growth inhibition at 10 ug/ml; assay type: functional, organism-based
[10] = system: Mycolicibacterium smegmatis; test: Antimicrobial activity against Mycobacterium smegmatis MC2 5072 overexpressing dhfr gene assessed as growth inhibition at 120 ug/ml; assay type: functional, organism-based
[11] = system: Mycolicibacterium smegmatis; test: Antimicrobial activity against Mycobacterium smegmatis MC2 5069 assessed as growth inhibition at 150 ug/ml; assay type: functional, organism-based

SMILES	Activity [1]	Activity [2]	Ratio [3]	Ki (Dihydrofolate reductase) [nM]	MIC [4] [µg/mL]	Activity [5]	Activity [6]	Activity (Escherichia coli)	MIC [7] [µg/mL]	Activity [8]	Activity [9]	Activity [10]	Activity [11]
NNC(=O)c1ccncc1 [ISONIAZID]	Active	Active	2	1	4.7 (≈ 34.3 µM)	Active	inactive	inactive	0.06 (≈ 0.438 µM)	inactive	Active	Active	Active
CCc1cc(C(N)=S)ccn1 [ETHIONAMIDE]	–	–	–	–	9.4 (≈ 56.5 µM)	–	–	–	–	–	–	–	–
